From PubChem BioAssay AID1963846 (Molecular Pharmacology Branch, DTP, NCI, 2024)

Test system: 454973-116-R2-J3-PDC complex spheroid viability
Experiment: Anticancer human tumor 454973-116-R2-J3-PDC patient-derived pancreatic carcinoma cell line growth inhibition [POLQ]
Conditions: for IC50: curve of first compound; for viability, T/C: stronger effect = lower value
Summary of the method: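 Growth inhibition in 3D: complex spheroids (tumor PDC, HUVEC, MSC) treated with POLQ inhibitor combinations; where Cmax unknown, highest tested concentration 10 microM, except SN-38 at 1 microM.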

[1] = second compound 0.0316 µM, first compound 0.0316 µM
[2] = second compound 0.0316 µM, first compound 0.1 µM
[3] = second compound 0.0316 µM, first compound 0.316 µM
[4] = second compound 0.0316 µM, first compound 1 µM
[5] = second compound 0.0316 µM, first compound 3.16 µM
[6] = second compound 0.0316 µM, first compound 10 µM
[7] = second compound 0.1 µM, first compound 0.0316 µM
[8] = second compound 0.1 µM, first compound 0.1 µM
[9] = second compound 0.1 µM, first compound 0.316 µM
[10] = second compound 0.1 µM, first compound 1 µM
[11] = second compound 0.1 µM, first compound 3.16 µM
[12] = second compound 0.1 µM, first compound 10 µM
[13] = second compound 0.316 µM, first compound 0.0316 µM
[14] = second compound 0.316 µM, first compound 0.1 µM
[15] = second compound 0.316 µM, first compound 0.316 µM
[16] = second compound 0.316 µM, first compound 1 µM
[17] = second compound 0.316 µM, first compound 3.16 µM
[18] = second compound 0.316 µM, first compound 10 µM
[19] = second compound 1 µM, first compound 0.0316 µM
[20] = second compound 1 µM, first compound 0.1 µM
[21] = second compound 1 µM, first compound 0.316 µM
[22] = second compound 1 µM, first compound 1 µM
[23] = second compound 1 µM, first compound 3.16 µM
[24] = second compound 1 µM, first compound 10 µM
[25] = second compound 3.16 µM, first compound 0.0316 µM
[26] = second compound 3.16 µM, first compound 0.1 µM
[27] = second compound 3.16 µM, first compound 0.316 µM
[28] = second compound 3.16 µM, first compound 1 µM
[29] = second compound 3.16 µM, first compound 3.16 µM
[30] = second compound 3.16 µM, first compound 10 µM
[31] = second compound 10 µM, first compound 0.0316 µM
[32] = second compound 10 µM, first compound 0.1 µM
[33] = second compound 10 µM, first compound 0.316 µM
[34] = second compound 10 µM, first compound 1 µM
[35] = second compound 10 µM, first compound 3.16 µM
[36] = second compound 10 µM, first compound 10 µM
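Also: spheroids exposed to drugs for seven days before measurement.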
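For viability, T/C in this document: percent viability relative to DMSO vehicle control wells taken as 100%.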

C#Cc1c(F)ccc2cc(O)cc(-c3ncc4c(N5CC6CCC(C5)N6)nc(OCC56CCCN5CC(F)C6)nc4c3F)c12 (stereo not given) + COC1C(OC(N)=O)C(O)C(Oc2ccc3c(O)c(NC(=O)c4ccc(O)c(CC=C(C)C)c4)c(=O)oc3c2C)OC1(C)C
IC50 (second compound 0.0316 µM): 108 nM | IC50 (second compound 0.1 µM): 150 nM | IC50 (second compound 0.316 µM): 127 nM | IC50 (second compound 1 µM): 104 nM | IC50 (second compound 3.16 µM): 131 nM | IC50 (second compound 10 µM): 141 nM | viability, T/C [1]: 72.4% | viability, T/C [2]: 48.9% | viability, T/C [3]: 40% | viability, T/C [4]: 31.8% | viability, T/C [5]: 31.9% | viability, T/C [6]: 23.4% | viability, T/C [7]: 68.2% | viability, T/C [8]: 55.6% | viability, T/C [9]: 40.1% | viability, T/C [10]: 30.3% | viability, T/C [11]: 39.8% | viability, T/C [12]: 25.3% | viability, T/C [13]: 83.9% | viability, T/C [14]: 52.4% | viability, T/C [15]: 39.2% | viability, T/C [16]: 29.7% | viability, T/C [17]: 27.8% | viability, T/C [18]: 26.7% | viability, T/C [19]: 67.3% | viability, T/C [20]: 52.3% | viability, T/C [21]: 34.7% | viability, T/C [22]: 38.3% | viability, T/C [23]: 31.1% | viability, T/C [24]: 27.9% | viability, T/C [25]: 69.7% | viability, T/C [26]: 53.4% | viability, T/C [27]: 41% | viability, T/C [28]: 29.8% | viability, T/C [29]: 32.9% | viability, T/C [30]: 24.2% | viability, T/C [31]: 63% | viability, T/C [32]: 56.6% | viability, T/C [33]: 35% | viability, T/C [34]: 30.1% | viability, T/C [35]: 26.6% | viability, T/C [36]: 22.6%

CC1COCCN1c1cc(C2(O)CC3CCC(C2)O3)c2cnn(-c3ccn[nH]3)c2n1 (stereo not given) + COC1C(OC(N)=O)C(O)C(Oc2ccc3c(O)c(NC(=O)c4ccc(O)c(CC=C(C)C)c4)c(=O)oc3c2C)OC1(C)C
IC50 (second compound 0.0316 µM): 205 nM | IC50 (second compound 0.1 µM): 233 nM | IC50 (second compound 0.316 µM): 225 nM | IC50 (second compound 1 µM): 197 nM | IC50 (second compound 3.16 µM): 193 nM | IC50 (second compound 10 µM): 217 nM | viability, T/C [1]: 104% | viability, T/C [2]: 74.1% | viability, T/C [3]: 35.3% | viability, T/C [4]: 22.1% | viability, T/C [5]: 25.1% | viability, T/C [6]: 15.6% | viability, T/C [7]: 93.2% | viability, T/C [8]: 76.9% | viability, T/C [9]: 39.6% | viability, T/C [10]: 24.4% | viability, T/C [11]: 22.2% | viability, T/C [12]: 15.8% | viability, T/C [13]: 100% | viability, T/C [14]: 75.6% | viability, T/C [15]: 40.6% | viability, T/C [16]: 18.9% | viability, T/C [17]: 25.8% | viability, T/C [18]: 18.4% | viability, T/C [19]: 102% | viability, T/C [20]: 69.6% | viability, T/C [21]: 37.8% | viability, T/C [22]: 18.7% | viability, T/C [23]: 21.4% | viability, T/C [24]: 20.1% | viability, T/C [25]: 104% | viability, T/C [26]: 73.5% | viability, T/C [27]: 32.6% | viability, T/C [28]: 19.3% | viability, T/C [29]: 24.1% | viability, T/C [30]: 17.6% | viability, T/C [31]: 94.6% | viability, T/C [32]: 68.4% | viability, T/C [33]: 42.3% | viability, T/C [34]: 21.5% | viability, T/C [35]: 25.8% | viability, T/C [36]: 15%

COc1cc2cc(C(=O)CCC(=O)O)sc2cc1OC + COC1C(OC(N)=O)C(O)C(Oc2ccc3c(O)c(NC(=O)c4ccc(O)c(CC=C(C)C)c4)c(=O)oc3c2C)OC1(C)C
IC50 (second compound 0.0316 µM): > 10000 nM | IC50 (second compound 0.1 µM): > 10000 nM | IC50 (second compound 0.316 µM): > 10000 nM | IC50 (second compound 1 µM): > 10000 nM | IC50 (second compound 3.16 µM): > 10000 nM | IC50 (second compound 10 µM): > 10000 nM | viability, T/C [1]: 95.3% | viability, T/C [2]: 100% | viability, T/C [3]: 102% | viability, T/C [4]: 121% | viability, T/C [5]: 113% | viability, T/C [6]: 96% | viability, T/C [7]: 101% | viability, T/C [8]: 115% | viability, T/C [9]: 99.3% | viability, T/C [10]: 118% | viability, T/C [11]: 111% | viability, T/C [12]: 102% | viability, T/C [13]: 109% | viability, T/C [14]: 110% | viability, T/C [15]: 120% | viability, T/C [16]: 110% | viability, T/C [17]: 104% | viability, T/C [18]: 97.2% | viability, T/C [19]: 107% | viability, T/C [20]: 102% | viability, T/C [21]: 127% | viability, T/C [22]: 110% | viability, T/C [23]: 107% | viability, T/C [24]: 93.8% | viability, T/C [25]: 110% | viability, T/C [26]: 103% | viability, T/C [27]: 105% | viability, T/C [28]: 112% | viability, T/C [29]: 105% | viability, T/C [30]: 93% | viability, T/C [31]: 114% | viability, T/C [32]: 102% | viability, T/C [33]: 93.6% | viability, T/C [34]: 100% | viability, T/C [35]: 99.4% | viability, T/C [36]: 90.5%

O=C(Nc1ccc(O)c(NS(=O)(=O)c2ccc(F)cc2)c1)c1ccc(-c2ccccc2)cc1 + COC1C(OC(N)=O)C(O)C(Oc2ccc3c(O)c(NC(=O)c4ccc(O)c(CC=C(C)C)c4)c(=O)oc3c2C)OC1(C)C
IC50 (second compound 0.0316 µM): > 10000 nM | IC50 (second compound 0.1 µM): > 10000 nM | IC50 (second compound 0.316 µM): > 10000 nM | IC50 (second compound 1 µM): > 10000 nM | IC50 (second compound 3.16 µM): > 10000 nM | IC50 (second compound 10 µM): > 10000 nM | viability, T/C [1]: 93% | viability, T/C [2]: 107% | viability, T/C [3]: 98.8% | viability, T/C [4]: 112% | viability, T/C [5]: 112% | viability, T/C [6]: 105% | viability, T/C [7]: 101% | viability, T/C [8]: 119% | viability, T/C [9]: 103% | viability, T/C [10]: 124% | viability, T/C [11]: 106% | viability, T/C [12]: 105% | viability, T/C [13]: 101% | viability, T/C [14]: 110% | viability, T/C [15]: 112% | viability, T/C [16]: 116% | viability, T/C [17]: 113% | viability, T/C [18]: 103% | viability, T/C [19]: 109% | viability, T/C [20]: 104% | viability, T/C [21]: 108% | viability, T/C [22]: 117% | viability, T/C [23]: 109% | viability, T/C [24]: 98.4% | viability, T/C [25]: 113% | viability, T/C [26]: 115% | viability, T/C [27]: 107% | viability, T/C [28]: 106% | viability, T/C [29]: 118% | viability, T/C [30]: 94.2% | viability, T/C [31]: 108% | viability, T/C [32]: 92.1% | viability, T/C [33]: 93.4% | viability, T/C [34]: 104% | viability, T/C [35]: 102% | viability, T/C [36]: 85.6%

COc1cccc2c1C(=O)c1c(O)c3c(c(O)c1C2=O)CC(O)(C(=O)CO)CC3OC1CC(N)C(O)C(C)O1 (stereo not given) + Cc1cccc(N(C)C(=O)C2C(O)CCN2c2nc(C)cc(C(F)(F)F)c2C#N)c1
IC50 (second compound 0.0316 µM): 59.7 nM | IC50 (second compound 0.1 µM): 62.8 nM | IC50 (second compound 0.316 µM): 61.5 nM | IC50 (second compound 1 µM): 59.8 nM | IC50 (second compound 3.16 µM): 48.6 nM | IC50 (second compound 10 µM): 54.6 nM | viability, T/C [1]: 72.9% | viability, T/C [2]: 25.9% | viability, T/C [3]: 22.1% | viability, T/C [4]: 10.9% | viability, T/C [5]: 0.31% | viability, T/C [6]: 0.23% | viability, T/C [7]: 71.8% | viability, T/C [8]: 29.3% | viability, T/C [9]: 26.9% | viability, T/C [10]: 8.87% | viability, T/C [11]: 1.7% | viability, T/C [12]: 0.22% | viability, T/C [13]: 70.3% | viability, T/C [14]: 30.2% | viability, T/C [15]: 24.2% | viability, T/C [16]: 9.69% | viability, T/C [17]: 0.35% | viability, T/C [18]: 0.28% | viability, T/C [19]: 67.8% | viability, T/C [20]: 30.9% | viability, T/C [21]: 26.6% | viability, T/C [22]: 9.52% | viability, T/C [23]: 0.41% | viability, T/C [24]: 0.32% | viability, T/C [25]: 56.3% | viability, T/C [26]: 38.4% | viability, T/C [27]: 25.6% | viability, T/C [28]: 6.92% | viability, T/C [29]: 0.38% | viability, T/C [30]: 0.33% | viability, T/C [31]: 63.8% | viability, T/C [32]: 33% | viability, T/C [33]: 22% | viability, T/C [34]: 7.02% | viability, T/C [35]: 0.38% | viability, T/C [36]: 0.49%
